According to patent publication US4070469A, “Compound for the treatment of bovine mastitis” (priority 1975, dated 1978):
≈ marks a conversion by molar mass, not a printed value. Entries after “also recorded” stand apart in the source; their conditions may differ. Where two headings read alike, the source gives them in different places.

Legend:
[1] = tested on: Staph.Aureus; assay: Minimal bactericidal activity (MBC) in milk, field isolates; format: cell-based; conditions: Staphylococcus aureus, in milk at pH 7.2 - 7.4
Source text: (§1) The activity of some of said nitrofuryl quinolines derivatives against Strep.uberis and Stap.Aureus in milk has been compared with the activity of some of the compounds so far utilised in the treatment of bovine mastitis. The results are shown in Table I. (The nitrofuryl quinoline derivatives have general formula [drawing 1] the meaning of R, A, R', B, Y, X and Z being given in the Table. R1 =O whenever indicated then the N-oxide is concerned; NF stands for nitrofuryl)
(§2) Minimal Bactericidal/Activity (MBC) of representative Nitrofuryl
(§3) in mcg/ml in milk at pH 7.2 - 7.4. Versus Standards (Field

[2] = tested on: Strep.uberis; assay: as above; format: cell-based; conditions: Streptococcus uberis, in milk at pH 7.2 - 7.4
Source text: as §1, §2, §3

[3] = tested on: Strep.uberis and Stap.Aureus; assay: Activity against mastitis bacteria in presence of milk (Table I, summary in words); format: cell-based
Source text: as §1

[4] = Residue of active compound in milk of the cow; format: in vivo; conditions: 500 mg in 7 ml P.E.G. base
Method: Said four compounds were then tested for the length of time they could be detected in the milk of the cow. For this purpose 500 mg in 7 ml of a polyethylene glycol (P.E.G.) base of each compound were administered to several cows and the residue of active compound in milk were measured in mcg/ml after 24, 32 and 40 hours respectively.

[5] = tested on: udder; assay: Number of leucocytes (somatic cells) in milk / irritation of the udder; format: in vivo, cow
Method: Thereafter 500 mg of each of said compounds in 7 ml of a P.E.G. base and also 7 ml of said base above were administered to several cows and the number of leucocytes (sematic cells) in 10^6 per ml of milk were measured before administration and 40, 48 and 56 hours thereafter. The numbers of leucocytes present indicate the degree of irritation of the udder.

[6] = LD50 mice; conditions: mouse, in vivo
[7] = LD50 rats; conditions: rat, in vivo
[8] = tested on: C.pyogenes; assay: Sensitivity of udder pathogens in milk, serial dilution; format: cell-based; conditions: 24 hours, 3 strains
Method: (§4) This indication was verified by testing in vitro by the method of serial dilution the sensitivity of said compound against udder pathogens in milk in various concentrations measured in meg/ml of milk. The number of strains which were killed at each concentration were measured after 24 hours.

[9] = tested on: Enterococci; assay: as above; format: cell-based; conditions: 24 hours, 8 strains
Method: as §4

[10] = tested on: Staph.Aureus; assay: as above; format: cell-based; conditions: 24 hours, 86 strains
Method: as §4

[11] = tested on: Str.agalactiac; assay: as above; format: cell-based; conditions: 24 hours, 34 strains
Method: as §4

[12] = tested on: Str.dysgalactiae; assay: as above; format: cell-based; conditions: 24 hours, 18 strains
Method: as §4

[13] = tested on: Str.uberis; assay: as above; format: cell-based; conditions: 24 hours, 32 strains
Method: as §4

[14] = tested on: Steph.aureus; assay: Efficiency test in cows suffering from bovine mastitis; format: in vivo, cow; conditions: 2 doses, 24 hours interval
Method: In has been shown that said range is effectful by an efficiency test in which various doses of 4-(5-nitrofuryl)-.quinaldinic acid N-oxide were administered to cows suffering from bovine mastitis. There were adminstered 2 doses in intervals of 24 hours. The results are shown in Table V in cured quarters/treated quarters.

[15] = tested on: Str.dysgal.; assay: as above; format: in vivo, cow; conditions: 2 doses, 24 hours interval
[16] = tested on: Str.uberls; assay: as above; format: in vivo, cow; conditions: 2 doses, 24 hours interval
[17] = 25 meg/ml of milk (so in the source)

## O=C(O)c1cc(-c2ccc([N+](=O)[O-])o2)c2ccccc2[n+]1[O-] [Compound 1, 2-carboxy-4-[2'-(5'-nitrofuryl)]quinoline N-oxide]
[1]; field isolate 2337, read-out: Minimal Bactericidal Activity (MBC), Staph.Aureus 2337
  MBC: 0.5 µg/mL (≈ 1.67 µM)
[1]; field isolate 2372, read-out: Minimal Bactericidal Activity (MBC), Staph.Aureus 2372
  MBC: 0.25 µg/mL (≈ 0.833 µM)
[2]; field isolate 60B, read-out: Minimal Bactericidal Activity (MBC), Strep.uberis 60B
  MBC: 0.015 µg/mL (≈ 0.05 µM)
[2]; field isolate 127A, read-out: Minimal Bactericidal Activity (MBC), Strep.uberis 127A
  MBC: 0.25 µg/mL (≈ 0.833 µM)
[3]
  activity in presence of milk (in words): significant activity in milk; also recorded: the most active one
[4]
  time remaining in the milk (in words): remained the shortest time in the milk
[4]; bovine, milk, 24 hrs
  concentration at 24 h: 9800 ng/mL
[5]; 500 mg in 7 ml P.E.G. base
  irritation of the udder (in words): caused the lowest irritation
[5]; 40 hrs after 500 mg in 7 ml P.E.G. base
  number of leucocytes (sematic cells) in milk, 40 hrs.: 0.95 10^6 per ml
[5]; 48 hrs after 500 mg in 7 ml P.E.G. base
  number of leucocytes (sematic cells) in milk, 48 hrs.: 1.5 10^6 per ml
[5]; 56 hrs after 500 mg in 7 ml P.E.G. base
  number of leucocytes (sematic cells) in milk, 56 hrs.: 0.95 10^6 per ml
[5]; before administration (baseline)
  number of leucocytes (sematic cells) in milk, before: 0.28 10^6 per ml
[6]
  LD50: 3000 mg/kg
[7]
  LD50: 1600 mg/kg
[8]; 0.62 meg/ml of milk
  number of strains killed: 1 strains
[8]; 1.25 meg/ml of milk
  number of strains killed: 2 strains
[9]; 0.04 meg/ml of milk
  number of strains killed: 2 strains
[9]; 0.08 meg/ml of milk
  number of strains killed: 3 strains
[9]; 0.16 meg/ml of milk
  number of strains killed: 2 strains
[9]; 0.31 meg/ml of milk
  number of strains killed: 1 strains
[10]; 0.16 meg/ml of milk
  number of strains killed: 4 strains
[10]; 0.31 meg/ml of milk
  number of strains killed: 14 strains
[10]; 0.62 meg/ml of milk
  number of strains killed: 51 strains
[10]; 1.25 meg/ml of milk
  number of strains killed: 15 strains
[10]; [17]
  number of strains killed: 1 strains
[11]; 0.02 meg/ml of milk
  number of strains killed: 5 strains
[11]; 0.04 meg/ml of milk
  number of strains killed: 12 strains
[11]; 0.08 meg/ml of milk
  number of strains killed: 13 strains
[11]; 0.16 meg/ml of milk
  number of strains killed: 1 strains
[11]; 0.31 meg/ml of milk
  number of strains killed: 1 strains
[11]; 0.62 meg/ml of milk
  number of strains killed: 1 strains
[11]; 1.25 meg/ml of milk
  number of strains killed: 1 strains
[12]; 0.02 meg/ml of milk
  number of strains killed: 1 strains
[12]; 0.04 meg/ml of milk
  number of strains killed: 2 strains
[12]; 0.08 meg/ml of milk
  number of strains killed: 13 strains
[12]; 0.16 meg/ml of milk
  number of strains killed: 1 strains
[12]; 0.62 meg/ml of milk
  number of strains killed: 1 strains
[13]; 0.16 meg/ml of milk
  number of strains killed: 1 strains
[13]; 0.31 meg/ml of milk
  number of strains killed: 9 strains
[13]; 0.62 meg/ml of milk
  number of strains killed: 18 strains
[13]; 1.25 meg/ml of milk
  number of strains killed: 2 strains
[13]; 5 meg/ml of milk
  number of strains killed: 1 strains
[13]; [17]
  number of strains killed: 1 strains
[14]; 50 mg
  cured quarters, percent: 50%
  cured quarters/treated quarters: 15/30
[14]; 100 mg
  cured quarters, percent: 75%
  cured quarters/treated quarters: 6/8
[14]; 250 mg
  cured quarters, percent: 75%
  cured quarters/treated quarters: 6/8
[14]; 500 mg
  cured quarters, percent: 88%
  cured quarters/treated quarters: 8/9
[15]; 50 mg
  cured quarters, percent: 62.5%
  cured quarters/treated quarters: 10/16
[15]; 100 mg
  cured quarters, percent: 80%
  cured quarters/treated quarters: 4/5
[15]; 250 mg
  cured quarters, percent: 83%
  cured quarters/treated quarters: 5/6
[16]; 50 mg
  cured quarters, percent: 61.5%
  cured quarters/treated quarters: 8/13
[16]; 100 mg
  cured quarters, percent: 80%
  cured quarters/treated quarters: 4/5
[16]; 250 mg
  cured quarters, percent: 80%
  cured quarters/treated quarters: 4/5
[16]; 500 mg
  cured quarters, percent: 84%
  cured quarters/treated quarters: 5/6
